In patent US8389539B2, “Azacyclic derivatives” (Hoffman-La Roche Inc., priority 2009, dated 2013) one finds IC50 data, which are given here for 14 compounds.

SMILES strings stand for the structures.

The target of the assay is T1, human HSL (Homo sapiens, UniProt Q05469).
T1 construct: overlapping PCR to generate a full length human HSL ORF with a 3′-His6 tag; His6 (C); made in house; host or cells: High 5 insect cells (baculovirus, pFast-BAC)
T1 sequence (Q05469 1-1076): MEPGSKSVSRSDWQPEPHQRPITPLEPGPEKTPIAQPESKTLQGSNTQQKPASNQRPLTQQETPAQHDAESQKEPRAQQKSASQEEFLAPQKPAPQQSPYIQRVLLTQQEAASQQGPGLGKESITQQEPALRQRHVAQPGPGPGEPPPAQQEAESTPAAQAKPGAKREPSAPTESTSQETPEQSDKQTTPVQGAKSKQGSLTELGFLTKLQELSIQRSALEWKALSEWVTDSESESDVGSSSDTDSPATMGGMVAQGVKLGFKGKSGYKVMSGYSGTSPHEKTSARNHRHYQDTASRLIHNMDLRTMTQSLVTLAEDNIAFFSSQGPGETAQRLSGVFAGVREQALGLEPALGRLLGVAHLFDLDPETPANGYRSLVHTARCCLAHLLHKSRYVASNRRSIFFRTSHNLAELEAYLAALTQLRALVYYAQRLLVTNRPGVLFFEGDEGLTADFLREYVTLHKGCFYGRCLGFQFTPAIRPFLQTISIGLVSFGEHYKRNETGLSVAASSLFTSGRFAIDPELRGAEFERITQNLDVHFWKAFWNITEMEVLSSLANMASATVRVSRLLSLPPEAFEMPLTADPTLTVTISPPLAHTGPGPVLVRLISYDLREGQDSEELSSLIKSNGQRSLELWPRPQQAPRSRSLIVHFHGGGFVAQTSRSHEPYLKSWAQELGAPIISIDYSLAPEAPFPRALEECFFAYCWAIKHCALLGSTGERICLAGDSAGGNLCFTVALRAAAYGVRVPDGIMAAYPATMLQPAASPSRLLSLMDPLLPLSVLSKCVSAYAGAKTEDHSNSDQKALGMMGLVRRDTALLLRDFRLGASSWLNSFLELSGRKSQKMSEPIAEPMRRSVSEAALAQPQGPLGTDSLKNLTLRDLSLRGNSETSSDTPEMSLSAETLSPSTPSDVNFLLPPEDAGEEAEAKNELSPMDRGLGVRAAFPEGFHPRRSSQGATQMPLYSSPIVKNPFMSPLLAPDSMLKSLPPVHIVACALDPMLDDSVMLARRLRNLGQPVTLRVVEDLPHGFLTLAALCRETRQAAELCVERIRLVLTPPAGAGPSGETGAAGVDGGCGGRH
The assay is described as follows: Human Hormone-Sensitive Lipase (HSL) enzyme inhibition assay (colorimetric, DMPT substrate). In kind it is biochemical. The note with it: human full length HSL-His6, 2,3-dimercapto-1-propanol tributyrate substrate, 37° C. 20 minutes, absorbance at 405 nm; read-out: HSL hum IC50. Here is the method: 1) Cloning: cDNA was prepared from commercial human brain polyA+ RNA and used as a template in overlapping PCR to generate a full length human HSL ORF with a 3′-His6 tag. This full length insert was cloned into the pFast-BAC vector and the DNA-sequence of several single clones was verified. DNA from a correct full length clone with the 3′His6 tag was used to transform the E. coli strain DH10BAC. Resulting bacmid DNA was used to generate a titered baculovirus stock for protein generation.
Cells were thawed. […] was done at 3×30 sec., Lubrol PX was added to 0.2% final concentration followed by stirring for 15 min. at 4° C. and centrifugation at 25 k×g, 60 min., 4° C. […] Supernatant was removed, the resin washed in the centrifuge vessel using 5 volumes of Base Buffer containing 0.2% Lubrol PX. Centrifugation was done again, then the supernatant discarded. The resin was poured onto a 0.8 μm membrane in a disposable filter unit (Nalge 450-0080), and washed with 5 volumes of Base Buffer containing 0.2% Lubrol PX. It was then washed with 30 volumes of Base Buffer containing 60 mM imidazole pH 7.5 at 4° C. The protein was eluated with 5 volumes of 25 mM Tris-Cl, 300 mM NaCl, 200 mM imidazole, 10 mM 2-mercaptoethanol, pH 7.5 at 4° C. by tumbling resin with buffer end-over-end, 30 min., 4° C. The resin was captured on a 0.2 μm membrane disposable filter unit (Millipore SCGP U02 RE) and the eluate collected in the reservoir. The eluate was concentrated using a 30 k MWCO centrifugal filter device (Sartorius Vivascience Vivacell 100, VC1022), to 20 ml. It was then dialyzed overnight at 4° C., two times against 2 L of 10% glycerol, 25 mM Tris-Cl, 300 mM NaCl, 0.2 mM EDTA, 0.2 mM DTT, pH 7.5 at 4° C. The protein was filtered using a 0.22 μm disposable filter unit (Millipore SCGP00525). The protein concentration was calculated from absorbance at 280 nm, using 280=0.67 cm-1 mg-1. […] The protein was stored at −80° C.
Human Hormone-Sensitive Lipase (HSL) Enzyme Inhibition Assay:
HSL enzyme activity was measured by a colorimetric assay using 2,3-dimercapto-1-propanol tributyrate (Aldrich, St. Louis, Mo.) as a substrate. Typically, 1.5 mM 2,3-dimercapto-1-propanol tributyrate (DMPT) in 100 mM MOPS, pH 7.2, 0.2 mg/ml fatty acid-free BSA was prepared by sonication at 4° C. to homogenous suspension. Test compounds (2 mM stock in DMSO) were diluted 3 fold in series in DMSO. Compound solutions were diluted 24 fold in 1.5 mM DMPT containing solution and 18 ul per well was added to 384-well microplates (Corning Costar). Twelve microliters per well of human HSL (15 ug/ml) was added and the reaction mixture was incubated at 37° C. for 20 minutes. Six microliters of 12 mM dithio-bis-(2-nitrobenzoic acid) (DTNB) in DMSO plus 1.2% SDS and 0.6% Triton X-100 were added and the mixture was incubated at room temperature for 15 minutes. Product production was monitored by reading absorbance at 405 nm on an Envision Reader (PerkinElmer Life and Analytical Sciences, Shelton, Conn.).
For `C[C@H](Oc1ccc(N2CCC3(CCN(CC(O)c4ccc(Cl)cc4Cl)CC3)C2=O)cc1)C(F)(F)F` (stereo partly drawn) [Example 52, 8-[2-(2,4-Dichloro-phenyl)-2-hydroxy-ethyl]-2-[4-((S)-2,2,2-trifluoro-1-methyl-ethoxy)-phenyl]-2,8-diaza-spiro[4.5]decan-1-one], the 50% inhibitory concentration (IC50) was 20 nM.
In the case of `CC(c1cccc(C(F)(F)F)c1)N1CCC2(CCN(c3ccc(C4CC4)cc3)C2=O)CC1` (centres unmarked) [Example 5, 2-(4-Cyclopropyl-phenyl)-8-[1-(3-trifluoromethyl-phenyl)-ethyl]-2,8-diaza-spiro[4.5]decan-1-one], the IC50 turned out to be 170 nM.
The figure for `O=C1N(c2ccc(OC(F)(F)F)cc2)CCC12CCN(Cc1ccccc1)CC2` [Example 8, 8-Benzyl-2-(4-trifluoromethoxy-phenyl)-2,8-diaza-spiro[4.5]decan-1-one] is 40 nM.
Turning to `O=C1N(c2ccc(C3CC3)cc2)CCC12CCN(Cc1ccc(C(F)(F)F)cc1)CC2` [Example 3, 2-(4-Cyclopropyl-phenyl)-8-(4-trifluoromethyl-benzyl)-2,8-diaza-spiro[4.5]decan-1-one], the IC50 came to 360 nM.
In the case of `CCCCNC(=O)C(C)N1CCC2(CCN(c3ccc(C4CC4)cc3)C2=O)CC1` (centres unmarked) [Example 27, N-Butyl-2-[2-(4-cyclopropyl-phenyl)-1-oxo-2,8-diaza-spiro[4.5]dec-8-yl]-propionamide], the IC50 amounted to 30 nM.
For `CCCCNC(=O)CCN1CCC2(CC1)CCN(c1ccc(C3CC3)cc1)C2=O` [Example 18, N-Butyl-3-[2-(4-cyclopropyl-phenyl)-1-oxo-2,8-diaza-spiro[4.5]dec-8-yl]-propionamide], the IC50 was 460 nM.
Take `O=C(CN1CCC2(CC1)CCN(c1ccc(C3CC3)cc1)C2=O)NCc1ccc(C(F)(F)F)cc1` [Example 12, 2-[2-(4-Cyclopropyl-phenyl)-1-oxo-2,8-diaza-spiro[4.5]dec-8-yl]-N-(4-trifluoromethyl-benzyl)-acetamide]: the half-inhibitory concentration (IC50) was found to be 30 nM.
For `CCCCNC(=O)[C@H](CCCC)N1CCC2(CCN(c3ccc(C4CC4)cc3)C2=O)CC1` [Example 41, (S)-2-[2-(4-Cyclopropyl-phenyl)-1-oxo-2,8-diaza-spiro[4.5]dec-8-yl]-hexanoic acid butylamide], the IC50 came out at 47 nM.
For the compound `O=C1N(c2ccc(CC(F)(F)F)cc2)CCC12CCN(CC(O)c1ccc(Cl)cc1Cl)CC2` (centres unmarked) [Example 46, 8-[2-(2,4-Dichloro-phenyl)-2-hydroxy-ethyl]-2-[4-(2,2,2-trifluoro-ethyl)-phenyl]-2,8-diaza-spiro[4.5]decan-1-one], the IC50 came out at 19 nM.
The figure for `O=C(CCN1CCC2(CC1)CCN(c1ccc(C3CC3)cc1)C2=O)NCc1ccc(C(F)(F)F)cc1` [Example 19, 3-[2-(4-Cyclopropyl-phenyl)-1-oxo-2,8-diaza-spiro[4.5]dec-8-yl]-N-(4-trifluoromethyl-benzyl)-propionamide] is 30 nM; for `O=C1N(c2ccc(C3CC3)cc2)CCC12CCN(C[C@H](O)c1ccc(F)cc1)CC2` [Example 35, 2-(4-Cyclopropyl-phenyl)-8-[(R)-2-(4-fluoro-phenyl)-2-hydroxy-ethyl]-2,8-diaza-spiro[4.5]decan-1-one] it is 20 nM.
For the compound `CC(C(=O)Nc1ccc(F)cc1)N1CCC2(CCN(c3ccc(C4CC4)cc3)C2=O)CC1` (centres unmarked) [Example 25, 2-[2-(4-Cyclopropyl-phenyl)-1-oxo-2,8-diaza-spiro[4.5]dec-8-yl]-N-(4-fluoro-phenyl)-propionamide], the IC50 worked out at 40 nM.
With `COc1ccc(C(C(O)C(N)=O)N2CCC3(CCN(c4ccc(C5CC5)cc4)C3=O)CC2)cc1` (centres unmarked) [Example 40, 3-[2-(4-Cyclopropyl-phenyl)-1-oxo-2,8-diaza-spiro[4.5]dec-8-yl]-2-hydroxy-3-(4-methoxy-phenyl)-propionamide], the IC50 was determined as 165 nM.
For the compound `CCCCNC(=O)C(CCCC)N1CCC2(CCN(c3ccc(C4CC4)cc3)C2=O)CC1` (centres unmarked) [Example 30, 2-[2-(4-Cyclopropyl-phenyl)-1-oxo-2,8-diaza-spiro[4.5]dec-8-yl]-hexanoic acid butylamide], the IC50 is 20 nM.

Broadly, the IC50 is the midpoint of a concentration-inhibition curve.
